Measured values taken from patent US20200354348A1, “SEMISYNTHETIC AURONES AND METHODS OF USE THEREOF” (University of Kentucky Research Foundation, priority 2018, published 2020).
“Also recorded” adds a separate entry of the source.

How the values were obtained:
Myc-induced T-ALL = assay: Anti-leukemia activity in the zebrafish model; format: in vivo
Description: Rag2:Myc-GFP zebrafish at 21 days of age were treated with DMSO, Aurone 4a, or 4r in 1.5 mL fish system water in 12-well plates. Zebrafish were treated with compound for 2 days, removed from drug for 1 day, and treated for two more days in fresh compound. Animals were imaged at the start and end of treatment using a fluorescence-equipped dissecting microscope at 350 ms exposure. The GFP image was overlaid onto the bright-field image of each animal in Photoshop, and the percent change in leukemia burden was calculated by normalizing the GFP+ area to the total area of the animal in ImageJ.

MOLT-4 = assay: IC50 in leukemia cell lines; format: cell-based; conditions: Homo sapiens; Molt-4, T-ALL
NCI/ADR-RES = assay: NCI60 screening; format: cell-based
Molt-16 = assay: IC50 in leukemia cell lines; format: cell-based; conditions: Homo sapiens; Molt-16, T-ALL
[1] = test system: LS174T colon and PC3 prostate cancer cells; assay: Combination with CDK inhibitor R03306, proliferation; format: cell-based
HCC1007-BL = assay: IC50 in leukemia cell lines; format: cell-based; conditions: Normal B-Lymphoblast
NCI-H522 = assay: NCI60 screening; format: cell-based; conditions: Homo sapiens, Non-Small Cell Lung Cancer
SK-MEL-28 = assay: NCI60 screening; format: cell-based; conditions: Homo sapiens, Melanoma
[2] = test system: PC-3, LS174T and HEK293T cells; assay: Cell morphology; format: cell-based; conditions: 300 nM, 6 h
EKVX = assay: NCI60 screening; format: cell-based; conditions: Homo sapiens, Non-Small Cell Lung Cancer
NCI-H226 = assay: NCI60 screening; format: cell-based; conditions: Homo sapiens, Non-Small Cell Lung Cancer
RPMI58402 = assay: IC50 in leukemia cell lines; format: cell-based; conditions: RPMI58402, T-ALL
CCRF-CEM = assay: IC50 in leukemia cell lines; format: cell-based; conditions: Homo sapiens, T-ALL
OVCAR-5 = assay: NCI60 screening; format: cell-based; conditions: Homo sapiens, Ovarian Cancer
Loucy = assay: IC50 in leukemia cell lines; format: cell-based; conditions: T-ALL
HCC-2998 = assay: NCI60 screening; format: cell-based; conditions: Homo sapiens, Colon Cancer
[3] = test system: PC-3, LS174T, A549, MCF-7, Ovcar-8 and NCI/ADR-RES; assay: Inhibition of various cancer cell lines, five-day treatment (FIG. 2A); format: cell-based; conditions: 120 h
Description: The inhibitory effects of aurones 4a and 4r were determined on various cancer cell lines including prostate cancer PC-3, colorectal cancer LS174T, lung cancer A549, breast cancer MCF-7, and ovarian cancer Ovcar-8 and NCI/ADR-RES (Tables 1-3, FIG. 2A).
(§1) Cell Culture. LS174T (colon cancer cells), PC-3 (prostate cancer cells), MCF-7 (beast) and A549 (lung) were cultured in the medium recommended by American Type Culture Collection at 37° C. with 5% CO2 atmosphere in a water jacketed incubator. Ovcar-8 and NCI/ADR-RES are gifts from Dr. Markos Leggas. Alpha-tubulin antibodies, TRITC-conjugated anti-rabbit antibody.
Proliferation inhibition assay. Cancer cells were seeded into 24-well plates at a density of 20,000 cells per well in 1 mL of culture medium and cultured overnight at 37° C. Compounds and the vehicle control DMSO were added to the cells. […] Then the cells resuspended in pbs were counted by Vi-CELL XR 2.03 (Beckman Coulter, Inc. USA). The ratio R of the number of viable cells in the compound treatment group to the number of viable cells in DMSO treatment group was taken as relative growth, and the percentage growth inhibition was calculated as: (1−R)*100. For initial testing, compounds were added to the cells at a final concentration 10 μM. Active compounds at 10 μM would be tested at lower concentrations.

MALME-3M = assay: NCI60 screening; format: cell-based; conditions: Homo sapiens, Melanoma
LS174T cells = assay: Proliferation inhibition assay, LS174T; format: cell-based; conditions: Homo sapiens, LS174T, Table 2
Description: as §1
(§2) Proliferation inhibition assay. Cancer cells were seeded into 24-well plates at a density of 20,000 cells per well in 1 mL of culture medium and cultured overnight at 37° C. Compounds and the vehicle control DMSO were added to the cells. After 6 days, medium was removed and 100 μL of trypsin was added. Then the cells resuspended in pbs were counted by Vi-CELL XR 2.03 (Beckman Coulter, Inc. USA). The ratio R of the number of viable cells in the compound treatment group to the number of viable cells in DMSO treatment group was taken as relative growth, and the percentage growth inhibition was calculated as: (1−R)*100. For initial testing, compounds were added to the cells at a final concentration 10 μM. Active compounds at 10 μM would be tested at lower concentrations.

PC-3 and LS174T cells = assay: Proliferation inhibition, Table 2; format: cell-based; conditions: Homo sapiens, read-out: inhibition at 300 nM concentrations
Description: as §2

Cdc2 (CDK1) = Cdc2 (CDK1) phosphorylation (FIG. 7B); format: cell-based
PC-3 tumor xenografts = assay: PC-3 xenografts in nude mice; format: in vivo; conditions: 10 mg/kg/day
Description: PC-3 cells suspended in PBS were subcutaneously injected to the lower flanks of immune-deficient nude mice at a density of 2×10^6 cells/200 ul (PBS). After tumor establishment, 4A formulated in tween80 (5%), DMSO (10%), PEG400 (25%) and PBS (60%) were administered in an intraperitoneal fashion to mice at a daily dose of 10 mg (compound)/kg (mouse). Blank vehicle was used as a control. Tumors and mouse weights were measured and tumor volumes were calculated as Length×width^2/2.

UACC-257 = assay: NCI60 screening; format: cell-based; conditions: Homo sapiens, Melanoma
NCI-H322M = assay: NCI60 screening; format: cell-based; conditions: Homo sapiens, Non-Small Cell Lung Cancer

CCn1cc(/C=C2\Oc3cc(OCC#N)ccc3C2=O)c2cc(OC)ccc21 [Aurone 4a, (Z)-2-((2-((1-Ethyl-5-methoxy-1H-indol-3-yl)methylene)-3-oxo-2,3-dihydrobenzofuran-6-yl)oxy)acetonitrile] was tested, and the “gross toxicity on zebrafish” value (Myc-induced T-ALL) was “no gross toxicity was observed”, the “inhibition of Myc-induced T-ALL” value (Myc-induced T-ALL; 5 days) was “blocked the progress of T-ALL; also recorded: significant inhibition of Myc-induced T-ALL” and the “decrease in leukemia burden” value (Myc-induced T-ALL; percent change over treatment, p=0.0011 vs DMSO) was 45.58%. The IC50 (MOLT-4) was 241 nM, the “cytotoxicity against multidrug-resistant cell line” value (NCI/ADR-RES; NCI/ADR-RES) was “potent cytotoxicity” and the “substrate of P-glycoprotein” value (NCI/ADR-RES; inferred from NCI/ADR-RES cells expressing P-glycoprotein) was “not likely a substrate of P-glycoprotein”. For the same compound, the IC50 (Molt-16) was 234 nM, the “combination effect with R03306 on proliferation” value [1] was “synergistic effects” and the IC50 (HCC1007-BL) was 1380 nM. The GI50 (NCI-H522) was 3130 nM, the GI50 (SK-MEL-28) was 10200 nM and the cell morphology [2] was “Cell morphologies were changed”. The GI50 (EKVX) was 2730 nM, the GI50 (NCI-H226) was 57400 nM and the IC50 (RPMI58402) was 301 nM. It also gave an IC50 (CCRF-CEM) of 244 nM, a GI50 (OVCAR-5) of 2520 nM and an IC50 (Loucy) of 334 nM. The GI50 (HCC-2998) was 3440 nM, the IC50 [3] was 50 to 300 nM and the GI50 (MALME-3M) was greater than 100000 nM. The inhibition at 0.1 µM (LS174T cells; 100 nM) was 11 ± 11%, the inhibition at 0.3 µM (LS174T cells; 300 nM) was 93 ± 14% and the inhibition at 1 µM (LS174T cells; 1 μM) was 97 ± 0.4%. For the same compound, the inhibition at 10 µM (LS174T cells; 10 μM) was 96 ± 0.8%, the inhibition at 0.3 µM (PC-3 and LS174T cells) was greater than 90% and the “Cdc2 (CDK1) phosphorylation at tyrosine 15” value (Cdc2 (CDK1)) was “decreasing phosphorylation at tyrosine 15”. The “gross toxicity / body weights of treated mice” value (PC-3 tumor xenografts) was “without significant effects on body weights; also recorded: no apparent gross toxicity; also recorded: no general toxicity”, the “in vivo tumor inhibitory effect” value (PC-3 tumor xenografts; intraperitoneal) was “inhibited PC-3 tumor xenografts; also recorded: significant, tumor-growth suppression” and the GI50 (UACC-257) was 67100 nM. The GI50 (NCI-H322M) was 1430 nM.
